Here are results for 4 compounds from ChEMBL document CHEMBL1124726, “Novel [(diazomethyl)carbonyl]-1,2,3,4-tetrahydronaphthalene derivatives as potential photoaffinity ligands for the 5-HT1A receptor” (J Med Chem, 1990).

Each structure is given as a SMILES string.

Assay [1] addresses T1, 5-hydroxytryptamine receptor 1A (Rattus norvegicus, UniProt P19327).
T1 sequence (P19327 whole entry): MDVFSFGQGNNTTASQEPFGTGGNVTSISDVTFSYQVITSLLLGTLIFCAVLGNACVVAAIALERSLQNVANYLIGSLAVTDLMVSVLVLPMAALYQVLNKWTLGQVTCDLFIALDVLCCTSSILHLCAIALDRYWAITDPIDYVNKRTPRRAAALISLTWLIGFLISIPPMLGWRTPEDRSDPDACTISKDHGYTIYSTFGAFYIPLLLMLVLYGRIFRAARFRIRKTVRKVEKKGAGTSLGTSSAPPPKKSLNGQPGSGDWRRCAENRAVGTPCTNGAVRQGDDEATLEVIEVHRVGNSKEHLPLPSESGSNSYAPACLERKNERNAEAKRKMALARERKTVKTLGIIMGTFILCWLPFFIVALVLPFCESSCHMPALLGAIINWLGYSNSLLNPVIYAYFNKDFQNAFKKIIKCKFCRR
The assay can be described thus: Binding affinity to 5-hydroxytryptamine 1A receptor in rat cortex using [3H]-8-OH- DPAT as radioligand.

Assay [2] addresses T1, 5-hydroxytryptamine receptor 1A. The assay can be described thus: Binding affinity to 5-hydroxytryptamine 1A receptor in rat hippocampus using [3H]-8-OH- DPAT as radioligand. The assay is classed as tissue-based.

For `CCCN(CCC)C1CCc2cccc(OCC(=O)C=[N+]=[N-])c2C1` (configuration not stated), the values for the IC50 in assay [1] and in assay [2] were 0.072 µM and 0.0781 µM, respectively.

For `CCCN(CCC)C1CCc2cccc(OC(=O)[CH-][N+]#N)c2C1` (configuration not stated), the IC50 (in general, the concentration at which inhibition is half-maximal) in assay [1] worked out at 0.107 µM; in assay [2], 0.155 µM.

In assay [1], `CCCN(CCC)C1CCc2cccc(C(=O)OC)c2C1` (configuration not stated) returned an IC50 of 0.0054 µM. Turning to `CCCN(CCC)C1CCc2cccc(C(=O)[CH-][N+]#N)c2C1` (configuration not stated), the values for the half-inhibitory concentration (IC50) in assay [1] and in assay [2] were 0.02 µM and 0.024 µM, respectively.
